ChEMBL document CHEMBL4334530, “Glucoconjugated Monoterpene Indole Alkaloids from Uncaria rhynchophylla” (J Nat Prod, 2019)
Where a name gives a salt, the structure may show the parent alone.

Assays:
A549 = assay: Cytotoxicity against human A549 cells assessed as cell growth inhibition measured after 48 hrs by MTT assay; assay type: functional, cell-based; details: A549, 48 h
HepG2 = assay: Cytotoxicity against human HepG2 cells assessed as cell growth inhibition measured after 48 hrs by MTT assay; assay type: functional, cell-based; details: HepG2, 48 h
MCF7 = assay: Cytotoxicity against human MCF7 cells assessed as cell growth inhibition measured after 48 hrs by MTT assay; assay type: functional, cell-based; details: MCF7, 48 h
Acetylcholinesterase = Acetylcholinesterase (Electrophorus electricus, UniProt O42275); assay: Inhibition of electric eel AChE using acetylthiocholine iodide as substrate preincubated for 20 mins followed by substrate addition measured for 30 mins by Ellman's method
Acetylcholinesterase, sequence (O42275 whole entry): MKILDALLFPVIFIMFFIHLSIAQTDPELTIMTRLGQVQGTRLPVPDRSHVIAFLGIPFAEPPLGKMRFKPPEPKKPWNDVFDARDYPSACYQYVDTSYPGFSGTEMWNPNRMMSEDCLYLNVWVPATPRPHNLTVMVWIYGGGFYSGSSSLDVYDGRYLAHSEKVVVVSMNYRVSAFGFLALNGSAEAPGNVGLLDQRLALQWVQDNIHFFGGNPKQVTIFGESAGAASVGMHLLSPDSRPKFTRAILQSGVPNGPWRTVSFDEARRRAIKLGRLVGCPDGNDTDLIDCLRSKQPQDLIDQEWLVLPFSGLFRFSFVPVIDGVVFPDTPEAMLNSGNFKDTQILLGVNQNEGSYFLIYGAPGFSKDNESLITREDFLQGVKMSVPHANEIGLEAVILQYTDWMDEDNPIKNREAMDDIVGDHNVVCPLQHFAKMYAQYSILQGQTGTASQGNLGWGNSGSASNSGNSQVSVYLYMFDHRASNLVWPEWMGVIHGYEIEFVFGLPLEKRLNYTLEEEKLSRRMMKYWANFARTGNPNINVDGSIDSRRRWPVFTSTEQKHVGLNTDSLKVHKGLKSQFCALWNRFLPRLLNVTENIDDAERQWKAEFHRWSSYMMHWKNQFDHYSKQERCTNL

Structure (SMILES)	IC50 (A549)	IC50 (HepG2)	IC50 (MCF7)	IC50 (Acetylcholinesterase)
C=C[C@H]1[C@H](O[C@@H]2O[C@H](CO)[C@@H](O)[C@H](O)[C@H]2O)OC=C2C(=O)N3Cc4c([nH]c5cc(O)ccc5c4=O)[C@H]3C[C@H]21	> 80 µM	> 80 µM	> 80 µM	–
C=C[C@H]1[C@H](O[C@@H]2O[C@H](CO)[C@@H](O)[C@H](O)[C@H]2O)OC=C2C(=O)N3CCc4c([nH]c5ccccc45)[C@@H]3C[C@H]21	> 80 µM	> 80 µM	> 80 µM	–
C=C[C@H]1[C@H](O[C@@H]2O[C@H](CO)[C@@H](O)[C@H](O)[C@H]2O)OC=C2C(=O)N3[C@H](C(=O)O)Cc4c([nH]c5ccccc45)[C@@H]3C[C@H]21	> 80 µM	> 80 µM	> 80 µM	–
C=C[C@H]1[C@H](O[C@@H]2O[C@H](CO)[C@@H](O)[C@H](O)[C@H]2O)OC=C(C(=O)OC)[C@H]1C[C@@H]1N[C@H](C(=O)O)Cc2c1[nH]c1ccccc21	> 80 µM	> 80 µM	> 80 µM	–
C=C[C@H]1[C@H](O[C@@H]2O[C@H](CO)[C@@H](O)[C@H](O)[C@H]2O)OC=C2C(=O)N3CC[C@@]4(C(=O)Nc5cc(O)ccc54)[C@H]3C[C@H]21	> 80 µM	> 80 µM	> 80 µM	–
C=C[C@H]1[C@H](O[C@@H]2O[C@H](CO)[C@@H](O)[C@H](O)[C@H]2O)OC=C2C(=O)N3CCc4c([nH]c5ccccc45)[C@H]3C[C@H]21	> 80 µM	> 80 µM	> 80 µM	–
C=C[C@H]1[C@H](O[C@@H]2O[C@H](CO)[C@@H](O)[C@H](O)[C@H]2O)OC=C(C(=O)OC)[C@H]1Cc1nc(C(=O)OC)cc2c1[nH]c1ccccc12	> 80 µM	> 80 µM	> 80 µM	–
C=C[C@H]1[C@H](O[C@@H]2O[C@H](CO)[C@@H](O)[C@H](O)[C@H]2O)OC=C2C(=O)N3CCc4c([nH]c5ccc(O)cc45)[C@@H]3C[C@H]21	> 80 µM	> 80 µM	> 80 µM	–
COC(=O)C1=CO[C@@H](O[C@@H]2O[C@H](CO)[C@@H](O)[C@H](O)[C@H]2O)[C@H]2[C@@H]1C[C@H]1c3[nH]c4ccccc4c3CCN1[C@H]2CO	> 80 µM	> 80 µM	> 80 µM	–
O=C1C2=CO[C@@H](O[C@@H]3O[C@H](CO)[C@@H](O)[C@H](O)[C@H]3O[C@@H]3O[C@H](CO)[C@@H](O)[C@H](O)[C@H]3O)[C@H]([C@H](O)CO)[C@@H]2C[C@@H]2c3[nH]c4cc(O[C@@H]5O[C@H](CO)[C@@H](O)[C@H](O)[C@H]5O)ccc4c3CCN12	> 80 µM	> 80 µM	> 80 µM	–
C=C[C@H]1COC(=O)C2=CN3CCc4c([nH]c5cccc(O[C@@H]6O[C@H](CO)[C@@H](O)[C@H](O)[C@H]6O)c45)[C@@H]3C[C@H]21	> 80 µM	> 80 µM	> 80 µM	10.5 µM
C=C[C@H]1[C@H](O[C@@H]2O[C@H](CO)[C@@H](O)[C@H](O)[C@H]2O)OC=C(C(=O)OC)[C@H]1C[C@@H]1N[C@H](C(=O)OC)Cc2c1[nH]c1ccccc21	> 80 µM	> 80 µM	> 80 µM	–
C=C[C@H]1[C@H](O[C@@H]2O[C@H](CO)[C@@H](O)[C@H](O)[C@H]2O[C@@H]2O[C@H](CO)[C@@H](O)[C@H](O)[C@H]2O)OC=C2C(=O)N3CCc4c([nH]c5ccccc45)[C@H]3C[C@H]21	> 80 µM	> 80 µM	> 80 µM	–
COC(=O)C1=CO[C@@H](O[C@@H]2O[C@H](CO)[C@@H](O)[C@H](O)[C@H]2O)[C@@H]2[C@@H]3CN4CCc5c([nH]c6ccccc56)[C@]4(C[C@H]12)O3	> 80 µM	> 80 µM	> 80 µM	–
COC(=O)C1=CO[C@@H](O[C@@H]2O[C@H](CO)[C@@H](O)[C@H](O)[C@H]2O)[C@@H]2[C@H](O)CN3CCc4c([nH]c5ccccc45)[C@@H]3C[C@H]12	> 80 µM	> 80 µM	> 80 µM	–
C=C[C@H]1[C@H](O[C@@H]2O[C@H](CO)[C@@H](O)[C@H](O)[C@H]2O[C@@H]2O[C@H](CO)[C@@H](O)[C@H](O)[C@H]2O)OC=C2C(=O)N3CC[C@@]4(C(=O)Nc5cc(O)ccc54)[C@H]3C[C@H]21	> 80 µM	> 80 µM	> 80 µM	–
COC(=O)C1=CO[C@@H](O[C@@H]2O[C@H](CO)[C@@H](O)[C@H](O)[C@H]2O)[C@H]2[C@@H]1C[C@@H]1N(CC[C@]13C(=O)Nc1ccccc13)C[C@@H]2O	> 80 µM	> 80 µM	> 80 µM	–
C=C[C@H]1[C@H](O[C@@H]2O[C@H](CO)[C@@H](O)[C@H](O)[C@H]2O[C@@H]2O[C@H](CO)[C@@H](O)[C@H](O)[C@H]2O)OC=C2C(=O)N3Cc4c([nH]c5cc(O)ccc5c4=O)[C@H]3C[C@H]21	> 80 µM	> 80 µM	> 80 µM	–
C=C[C@H]1CN2CC[C@]3(C(=O)Nc4ccccc43)[C@@H]2C[C@@H]1/C(=C/OC)C(=O)O[C@@H]1O[C@H](CO)[C@@H](O)[C@H](O)[C@H]1O	> 80 µM	> 80 µM	> 80 µM	–
C=C[C@H]1[C@H](O[C@@H]2O[C@H](CO)[C@@H](O)[C@H](O)[C@H]2O[C@@H]2O[C@H](CO)[C@@H](O)[C@H](O)[C@H]2O)OC=C2C(=O)N3CCc4c([nH]c5cc(O[C@@H]6O[C@H](CO)[C@@H](O)[C@H](O)[C@H]6O)ccc45)[C@H]3C[C@H]21	> 80 µM	> 80 µM	> 80 µM	–
COC(=O)C1=CO[C@@H](O[C@@H]2O[C@H](CO)[C@@H](O)[C@H](O)[C@H]2O)[C@H]2[C@@H]1C[C@@H]1c3[nH]c4ccccc4c3CCN1[C@H]2CO	> 80 µM	> 80 µM	> 80 µM	–
C=C[C@H]1CN2CC[C@@]3(C(=O)Nc4ccccc43)[C@@H]2C[C@@H]1/C(=C/OC)C(=O)O[C@@H]1O[C@H](CO)[C@@H](O)[C@H](O)[C@H]1O	> 80 µM	> 80 µM	> 80 µM	–
C=C[C@H]1[C@H](O[C@@H]2O[C@H](CO)[C@@H](O)[C@H](O)[C@H]2O)OC=C2C(=O)N3CCc4c([nH]c5cc(O)ccc45)[C@H]3C[C@H]21	> 80 µM	> 80 µM	> 80 µM	–
C=C[C@H]1[C@H](O[C@@H]2O[C@H](CO)[C@@H](O)[C@H](O)[C@H]2O[C@@H]2O[C@H](CO)[C@@H](O)[C@H](O)[C@H]2O)OC=C2C(=O)N3CC[C@]4(C(=O)Nc5cc(O)ccc54)[C@H]3C[C@H]21	> 80 µM	> 80 µM	> 80 µM	–
COc1cccc2c1C(=O)c1c(O)c3c(c(O)c1C2=O)C[C@@](O)(C(=O)CO)C[C@@H]3O[C@H]1C[C@H](N)[C@H](O)[C@H](C)O1 [DOXORUBICIN HYDROCHLORIDE]	< 1 µM	< 1 µM	< 1 µM	–
C=CC1C(C[C@@H]2NCCc3c2[nH]c2ccccc32)C(C(=O)O)=CO[C@H]1O[C@@H]1O[C@H](CO)[C@@H](O)[C@H](O)[C@H]1O (some centres undefined) [STRICTOSIDINIC ACID]	> 80 µM	> 80 µM	> 80 µM	–
